Where a name gives a salt, the structure may show the parent alone.
Experiments:
[1] = Solubility of bendamustine hydrochloride in water and organic solvents; type: physicochemical
Description: Therefore it is not surprising that the oral bendamustine compositions, as investigated by Preiss et al. and Weber gave rise to relatively poor bioavailability results and a large inter-individual variability.

[2] = Bendamustine hydrochloride solubility in carriers (HPLC of supernatant); type: physicochemical
Procedure: Due to the necessity to determine if part of the bendamustine hydrochloride added to the vehicle is dissolved, in order to verify a possible degradation, an analytical procedure, from sample preparation to its analysis, was developed.
Essentially, it consisted in the preparation of a supersaturated solution of bendamustine hydrochloride in the oil: the minimum amount of bendamustine hydrochloride suitable to generate sedimentation of solid particle on the bottom of the vessel was added to the oil warmed at 40° C.; this solution was electromagnetically stirred for several days (about 4) at room temperature and then centrifuged at 3000 rpm for 15 minutes. The supernatant was analysed by HPLC versus a solution of bendamustine hydrochloride working standard (0,551 mg/ml).
Essentially, it consisted in the preparation of a supersaturated solution of bendamustine hydrochloride in the vehicle: the minimum amount of bendamustine hydrochloride suitable to generate sedimentation of solid particle on the bottom of the vessel was added to the oil heated to about 5° C. above its melting point; this solution was kept in static condition at this temperature overnight, to allow sedimentation on the bottom. The supernatant was analysed by HPLC versus a solution of API working standard (0.551 mg/ml).
In table 21.a below, the results of the analysis are reported expressed as mg of bendamustine hydrochloride completely dissolved in about 1 g of solution of the carrier selected.
Further samples for the solubility evaluation were prepared by adding, under stirring, a quantity of active ingredient (API) suitable to generate a phase segregation to a determined amount of each carrier. The samples were prepared at a temperature slightly above the melting point of each carrier (except for liquid vehicles) and kept at this temperature for about 5 hrs (estimated manufacturing process time). Where applicable, each sample was centrifuged to accelerate phase segregation; an amount of the supernatant, corresponding to the filling weight of a capsule (about 600 mg), was withdrawn and evaluated for assay to determine the amount of API actually dissolved.
Each solubility value is related to a specific temperature, corresponding to the value set for the filling into capsules (see table 14).

[3] = B6D2F1-mice, absorption from the gastro-intestinal tract; cited from earlier work
[4] = cited from earlier work
[5] = carrier CREMOPHOR A6 (Semisolid at room temperature), suspension weight 1015.3 mg
[6] = carrier CREMOPHOR A25 (Semisolid at room temperature), suspension weight 995.6 mg
[7] = carrier CREMOPHOR EL (Liquid at room temperature), suspension weight 1026.8 mg
[8] = carrier CREMOPHOR RH40 (Semisolid at room temperature), suspension weight 1000.4 mg
[9] = carrier LABRAFAC PG (Liquid at room temperature), suspension weight 1961.5 mg
[10] = carrier LABRAFIL M1944 CS (Liquid at room temperature), suspension weight 1011.7 mg
[11] = carrier LABRAFIL M2125 (Liquid at room temperature), suspension weight 765.2 mg
[12] = carrier LAUROGLYCOL 90 (Liquid at room temperature), suspension weight 993.9 mg
[13] = carrier LAUROGLYCOL FCC (Liquid at room temperature), suspension weight 1934.8 mg
[14] = carrier MIGLYOL 810 (Liquid at room temperature), suspension weight 602.8 mg
[15] = carrier MIGLYOL 812 (Liquid at room temperature), suspension weight 1044.1 mg
[16] = carrier MIGLYOL 829 (Liquid at room temperature), suspension weight 1865.0 mg
[17] = carrier MIGLYOL 840 (Liquid at room temperature), suspension weight 599.9 mg
[18] = carrier PLUROL oleique CC497 (Liquid at room temperature), suspension weight 1005.8 mg
[19] = carrier PLURONIC L44 NF INH (Liquid at room temperature), suspension weight 1987.1 mg
[20] = carrier SOFTIGEN 701 (Liquid at room temperature), suspension weight 1079.0 mg
[21] = carrier SOFTISAN 645 (Liquid at room temperature), suspension weight 1014.0 mg
[22] = carrier TRANSCUTOL HP (Liquid at room temperature), suspension weight 1003.1 mg

Compound: Cn1c(CCCC(=O)O)nc2cc(N(CCCl)CCCl)ccc21 [bendamustine hydrochloride]
- solubility in a range of organic solvents [1]: slightly or very slightly soluble
- solubility in ethanol and methanol [1]: good solubility
- solubility in water ([1]; pH of 2.0): sparingly soluble
- Solubility ([2]; carrier BRIJ C2 (Semisolid), T 45 ° C.): 0.004 mg API/mg Solution
- Solubility ([2]; carrier BRIJ L4 (Liquid), T 25 ° C.): 0.008 mg API/mg Solution
- Solubility ([2]; carrier BRIJ L23 (Solid), T 45 ° C.): 0.004 mg API/mg Solution
- Solubility ([2]; carrier BRIJ O10 (Semisolid), T 45 ° C.): 0.007 mg API/mg Solution
- Solubility ([2]; carrier BRIJ O20 (Semisolid), T 45 ° C.): 0.006 mg API/mg Solution
- Solubility ([2]; carrier BRIJ S10 (Solid), T 42 ° C.): 0.003 mg API/mg Solution
- Solubility ([2]; carrier BRIJ S20 (Solid), T 50 ° C.): 0.008 mg API/mg Solution
- Solubility ([2]; carrier BRIJ S721 (Solid), T 45 ° C.): 0.004 mg API/mg Solution
- % API [2, 5]: 0.00%
- API recovered [2, 5]: 0.00 mg
- % API [2, 6]: 0.21%
- API recovered [2, 6]: 2.10 mg
- % API [2, 7]: 0.5%
- API recovered [2, 7]: 5.13 mg
- % API [2, 8]: 0.77%
- API recovered [2, 8]: 7.72 mg
- Solubility ([2]; carrier GELUCIRE 44/14 (Semisolid), T 45 ° C.): 0.004 mg API/mg Solution
- Solubility ([2]; carrier GLYCEROX HE (Liquid), T 25 ° C.): 0.005 mg API/mg Solution
- % API [2, 9]: 0.001%
- API recovered [2, 9]: 0.01 mg
- % API [2, 10]: 0.04%
- API recovered [2, 10]: 0.38 mg
- % API [2, 11]: 0.02%
- API recovered [2, 11]: 0.17 mg
- % API [2, 12]: 0.06%
- API recovered [2, 12]: 0.61 mg
- % API [2, 13]: 0.02%
- API recovered [2, 13]: 0.33 mg
- % API [2, 14]: 0.01%
- API recovered [2, 14]: 0.04 mg
- % API [2, 15]: 0.003%
- API recovered [2, 15]: 0.03 mg
- % API [2, 16]: 0.001%
- API recovered [2, 16]: 0.03 mg
- % API [2, 17]: 0.01%
- API recovered [2, 17]: 0.06 mg
- Solubility ([2]; carrier MIRJ S8 (Semisolid), T 42 ° C.): 0.010 mg API/mg Solution
- Solubility ([2]; carrier MIRJ S40 (Solid), T 50 ° C.): 0.005 mg API/mg Solution
- Solubility ([2]; carrier MIRJ S100 (Semisolid), T 50 ° C.): 0.009 mg API/mg Solution
- % API [2, 18]: 0.21%
- API recovered [2, 18]: 2.12 mg
- Solubility ([2]; carrier PLURONIC 103 (Semisolid), T 45 ° C.): 0.002 mg API/mg Solution
- Solubility ([2]; carrier PLURONIC F108 (Solid), T 70 ° C.): 0.006 mg API/mg Solution
- Solubility ([2]; carrier PLURONIC L35 (Liquid), T 25 ° C.): 0.000 mg API/mg Solution
- Solubility ([2]; carrier PLURONIC L43 (Liquid), T 25 ° C.): 0.000 mg API/mg Solution
- % API [2, 19]: 0.18%
- API recovered [2, 19]: 3.64 mg
- Solubility ([2]; carrier PLURONIC L64 (Liquid), T 25 ° C.): 0.000 mg API/mg Solution
- Solubility ([2]; carrier PLURONIC P85 (Semisolid), T 50 ° C.): 0.002 mg API/mg Solution
- Solubility ([2]; carrier PLURONIC P105 (Semisolid), T 50 ° C.): 0.002 mg API/mg Solution
- % API [2, 20]: 0.29%
- API recovered [2, 20]: 5.42 mg
- % API [2, 21]: 0.16%
- API recovered [2, 21]: 1.60 mg
- Solubility ([2]; carrier SOLUTOL HS15 (Semisolid), T 35 ° C.): 0.007 mg API/mg Solution
- Solubility ([2]; carrier SPEZIOL TPGS (Semisolid), T 45 ° C.): 0.002 mg API/mg Solution
- % API [2, 22]: 1.00%
- API recovered [2, 22]: 10.01 mg
- Solubility ([2]; carrier TWEEN 20 (Liquid), T 25 ° C.): 0.008 mg API/mg Solution
- Solubility ([2]; carrier TWEEN 40 (Liquid), T 25 ° C.): 0.007 mg API/mg Solution
- Solubility ([2]; carrier TWEEN 61 (Semisolid), T 45 ° C.): 0.019 mg API/mg Solution
- Solubility ([2]; carrier TWEEN 65 (Liquid), T 45 ° C.): 0.007 mg API/mg Solution
- Solubility ([2]; carrier TWEEN 81 (Liquid), T 25 ° C.): 0.004 mg API/mg Solution
- bendamustine hydrochloride recovered in a supersaturated solution in liquid or semisolid oily vehicles ([2]; selected carriers): < 1%
- bioavailability [3]: about 40%
- mean oral bioavailability ([4]; 7 patients, oral capsules vs intravenous, 4.2-5.5 mg/kg): 57%
- time to maximal plasma levels after oral administration ([4]; patients, oral capsules of 25 mg, 250-350 mg): ≤ 1 h

Source: US10993933B2, “Oral dosage forms of bendamustine” (ASTELLAS DEUTSCHLAND GMBH, priority 2010, dated 2021)
